{
  "source": "paper PMC9694334",
  "about": "“Synthesis and Biological Evaluation of a Fused Structure of Indolizine and Pyrrolo[1,2-c]pyrimidine: Identification of Its Potent Anticancer Activity against Liver Cancer Cells” (Pharmaceuticals, 2022)",
  "type_in_all_cases": "cell-based",
  "key": {"[1]": {"test_system": "NIH3T3 cells", "test": "Cell viability assay (MTS) in NIH3T3 cells", "conditions": "72 h, Figure 2G", "description": "(§1) Cell viability assay was conducted using Cell Titer 96® AQueous One Solution Cell proliferation Assay kit (Promega, Madison, WI, USA). Five cancer cells and HaCaT cells were plated in 96-well microplates with growth medium for 24 h. When cell confluency reached ~30%, cells were treated with DMSO (vehicle) and test compounds. The medium and test compounds were replaced every 24 h. To measure cell viability, the cells were incubated with MTS solution for 1 h. The absorbance was measured by using Infinite M200 microplate reader (Tecan, Männedorf, Switzerland) at 490 nm.\n(§2) Figure 2 Effect of 5r on cell viability in HepG2, Huh7, AGS, H1299, A549, HaCaT, NIH3T3, and HEK293T cells. (A–H) HepG2, Huh7, AGS, H1299, A549, HaCaT, NIH3T3, and HEK293T cells were cultured with 5r at the indicated concentrations for 72 h, and medium was replaced every 24 h with freshly added 5r. Cell viability was measured by MTS analysis (mean ± S.D., n = 5). * p < 0.05, ** p < 0.01, *** p < 0.001."}, "[2]": {"test_system": "caspase-3", "test": "Caspase-3 activity assay in Huh7 cells", "conditions": "3 µM 5r for 24 h, Figure 4B", "description": "(§3) HepG2 and Huh7 cells were plated in 96-black-well plate to about 40% confluence, and then 5r was treated for 24 h. To assess activity of caspase-3, the growth medium was changed with 100 μL of PBS containing 1 μM caspase-3 substrate, NucView 488, and incubated at room temperature. After 20 min, 1 μM Hoechst 33342 was treated to stain the cells. Activity of caspase-3 was suppressed by Ac-DEVD-CHO, a selective caspase-3 inhibitor. FLUOstar Omega microplate reader (BMG Labtech, Ortenberg, Germany) was used to assess the fluorescence of NucView 488 and Hoechst, and Lionheart FX Automated Microscope (BioTek, Winooski, VT, USA) was used to acquire the fluorescence microscopy images.\n(§4) Figure 4 Effect of 5r on activity of caspase-3 and cleavage of PARP in HepG2 and Huh7 cells. (A,B) HepG2 and Huh7 cells were incubated with 3 µM 5r for 24 h and then incubated with 1 µM caspase-3 substrate (green) and 1 µM Hoechst 33,342 (blue) for 20 min before image acquisition. (C,D) Cells were cultured with 5r at the indicated concentrations for 24 h and then 1 μM caspase-3 substrate was treated for 20 min. Caspase-3 was inhibited by 20 μM Ac-DEVD-CHO (mean ± S.D., n = 3). (E,F) Cells were cultured with 5r at the indicated concentrations for 24 h, and expression level of PARP, cleaved-PARP and β-actin were measured by Western blot analysis. […]"}, "[3]": {"test_system": "HEK293T cells", "test": "Cell viability assay (MTS) in HEK293T cells", "conditions": "72 h, Figure 2H", "description": "as §1, §2"}, "[4]": {"test_system": "caspase-3", "test": "Caspase-3 activity assay in HepG2 cells", "conditions": "3 µM 5r for 24 h, Figure 4A", "description": "as §3, §4"}, "[5]": {"test_system": "AGS cells", "test": "Cell viability assay (MTS) in AGS cells", "conditions": "72 h, MTS, Figure 2C", "description": "(§5) HepG2, Huh7, H1299, HT29, AGS and A549 cells were purchased from the Korean Cell Line Bank (Seoul, Korea) and HaCaT cells were obtained from Prof. Sohee Kwon (Yonsei University, Korea). Liver cancer cells (HepG2), human keratinocyte cells (HaCaT), and lung cancer cells (A549) were grown in DMEM high-glucose medium, liver cancer cells (Huh7) and non-small cell lung cancer cells (H1299) were grown in RPMI 1640, and gastric cancer cells (AGS) were grown in Coon’s modified F12 medium. All media were supplemented with 10% FBS, 100 Units/mL penicillin, and 100 μg/mL streptomycin. All cells were incubated at 37 °C, 5% CO2 and 95% humidity.\nas §1, §2"}, "[6]": {"test_system": "Huh7 cells", "test": "Combination of 5r with gemcitabine, cell viability (MTS) in Huh7 cells", "conditions": "co-treatment with gemcitabine (0.3 μM), 72 h", "description": "as §1\nFigure 6 Combination effect of 5r and gemcitabine on cell viability in HepG2 and Huh7 cells. (A,B) HepG2 and Huh7 cells were cultured with the indicated concentrations of 5r and gemcitabine (0.3 μM) for 72 h, and medium was replaced every 24 h with freshly added 5r and gemcitabine. Cell viability was determined by MTS analysis (mean ± S.D., n = 5). ** p < 0.01, *** p < 0.001."}, "[7]": {"test_system": "cleaved PARP", "test": "Western blot analysis of cleaved PARP in Huh7 cells", "conditions": "24 h, Figure 4F,H", "description": "For Western blot analysis, HepG2 and Huh7 cells were lysed with RIPA buffer (50 mM Tris-HCl, PH 7.4, 1% Nonidet P-40, 0.25% sodium deoxycholate, 150 mM NaCl, 1 mM EDTA, 1 mM Na3VO4, and protease inhibitor). Lysed samples were centrifuged at 13,000 RPM for 20 min at 4 °C to remove the cell debris, and equal amounts (60 μg protein/lane) of supernatant protein were divided by 4–12% Tris Glycine Precast Gel (KOMA BIOTECH, Seoul, Korea). Then, PVDF membranes (Millipore, Billerica, MA, USA) were used to transfer the separated proteins. Membrane blocking was performed by Tris-buffered saline with 0.1% Tween 20 (TBST) containing 5% bovine serum albumin (BSA) at room temperature for 50 min. The membranes were incubated with primary antibodies overnight at 4 °C with the indicated primary antibodies: anti-cleaved PARP (BD Biosciences) and anti-β-actin (Santa Cruz Biotechnology, Dallas, TX, USA). […] After 1 h, membranes were detected by using ECL Plus Western blotting detection system (GE Healthcare, Piscataway, NJ, USA).\nFigure 4 Effect of 5r on activity of caspase-3 and cleavage of PARP in HepG2 and Huh7 cells. […] (E,F) Cells were cultured with 5r at the indicated concentrations for 24 h, and expression level of PARP, cleaved-PARP and β-actin were measured by Western blot analysis. […]"}, "[8]": {"test_system": "HepG2 cells", "test": "Cell viability assay (MTS) in HepG2 cells", "conditions": "Homo sapiens, MTS, mean, n = 5, 72 h for 5r (Figure 2)", "description": "as §5, §1, §2"}, "[9]": {"test_system": "A549 cells", "test": "Cell viability assay (MTS) in A549 cells", "conditions": "72 h, MTS, Figure 2E", "description": "as §5, §1, §2"}},
  "data": [
    {"smiles": "N#Cc1c2c3cccn3c(-c3ccccc3O)nc2n2ccccc12", "note": "[Compound 5r, 5-(2-Hydroxyphenyl)pyrrolo[1′,2′:1,6]pyrimido[5,4-b]indolizine-12-carbonitrile]", "values": [
      {"measurement": "Effect on cell viability in non-cancerous NIH3T3 cells", "setting": "[1]", "value": "weakly decreased cell viability"},
      {"measurement": "Caspase-3 activity in Huh7 cells", "setting": "[2]", "value": "potently increased caspase-3 activity"},
      {"measurement": "Effect on cell viability in non-cancerous HEK293T cells", "setting": "[3]", "value": "weakly decreased cell viability"},
      {"measurement": "Caspase-3 activity in HepG2 cells", "setting": "[4]", "value": "potently increased caspase-3 activity"},
      {"measurement": "Effect on cell viability in AGS cells", "setting": "[5]", "value": "weak effect"},
      {"measurement": "Combination effect with gemcitabine on cell viability in Huh7 cells", "setting": "[6]", "value": "additional effect rather than a synergistic effect"},
      {"measurement": "Expression level of cleaved PARP in Huh7 cells", "setting": "[7]", "value": "increased the expression level of cleaved PARP in a dose-dependent manner"},
      {"measurement": "IC50", "setting": "[8]", "value": 0.22, "unit": "µM"},
      {"measurement": "Effect on cell viability in A549 cells", "setting": "[9]", "value": "weak effect"}
    ]}
  ]
}
